Test results published in the NIST ThermoML archive (doi:10.1021/acs.jced.6b00657).

Assay: xn = mol fraction of the nth substance listed
Conditions: Liquid, absorption in thin film, x2 = 0

CCCCCCCCn1cc[n+](C)c1.N#CC(=C=[N-])C#N [1-methyl-3-octylimidazolium tricyanomethanide] + O=C=O
Conditions | binary diffusion coefficient [m2/s]
298.15 K, 94 kPa | 1.5e-10
298.15 K, 194 kPa | 1.9e-10
298.15 K, 293 kPa | 1.8e-10
298.15 K, 393 kPa | 2e-10
298.15 K, 593 kPa | 2e-10
308.15 K, 194 kPa | 2.3e-10
308.15 K, 294 kPa | 2.4e-10
308.15 K, 393 kPa | 2.5e-10
308.15 K, 493 kPa | 2.5e-10
308.15 K, 593 kPa | 2.5e-10
308.15 K, 693 kPa | 2.7e-10
308.15 K, 793 kPa | 2.7e-10
308.15 K, 893 kPa | 3e-10
308.15 K, 992 kPa | 3.1e-10
308.15 K, 1093 kPa | 2.7e-10
308.15 K, 1193 kPa | 2.5e-10
308.15 K, 1293 kPa | 3.2e-10
308.15 K, 1392 kPa | 3.3e-10
308.15 K, 1492 kPa | 3.5e-10
308.15 K, 1593 kPa | 3.4e-10
308.15 K, 1693 kPa | 3.8e-10
308.15 K, 1793 kPa | 4e-10
308.15 K, 1892 kPa | 3.9e-10
308.15 K, 1993 kPa | 3.9e-10
323.15 K, 94 kPa | 3.2e-10
323.15 K, 194 kPa | 3.4e-10
323.15 K, 293 kPa | 3.5e-10
323.15 K, 393 kPa | 3.3e-10
323.15 K, 493 kPa | 3.3e-10
323.15 K, 593 kPa | 3.6e-10
323.15 K, 693 kPa | 3.9e-10
323.15 K, 793 kPa | 4e-10
323.15 K, 893 kPa | 3.9e-10
323.15 K, 992 kPa | 3.9e-10
323.15 K, 1093 kPa | 3.8e-10
323.15 K, 1193 kPa | 3.6e-10
323.15 K, 1292 kPa | 3.9e-10
323.15 K, 1393 kPa | 4e-10
323.15 K, 1493 kPa | 4.2e-10
323.15 K, 1593 kPa | 4.1e-10
323.15 K, 1692 kPa | 4.6e-10
323.15 K, 1793 kPa | 3.9e-10
323.15 K, 1892 kPa | 4.5e-10
323.15 K, 1993 kPa | 4.4e-10
338.25 K, 94 kPa | 4.3e-10
338.25 K, 194 kPa | 4.1e-10
338.25 K, 294 kPa | 4.5e-10
338.25 K, 394 kPa | 4.4e-10
338.25 K, 494 kPa | 4.2e-10
338.25 K, 593 kPa | 4.8e-10
338.25 K, 692 kPa | 4.3e-10
338.25 K, 794 kPa | 4.7e-10
338.25 K, 892 kPa | 4.2e-10
338.25 K, 993 kPa | 3.8e-10
338.25 K, 1093 kPa | 5e-10
338.25 K, 1193 kPa | 5.1e-10
338.25 K, 1292 kPa | 5e-10
338.25 K, 1392 kPa | 4.9e-10
338.25 K, 1493 kPa | 5e-10
338.25 K, 1692 kPa | 6e-10
338.25 K, 1793 kPa | 5.9e-10
338.25 K, 1892 kPa | 5.5e-10
338.25 K, 1993 kPa | 5.2e-10
353.25 K, 494 kPa | 5.7e-10
353.25 K, 594 kPa | 5.5e-10
353.25 K, 993 kPa | 6e-10
353.25 K, 1093 kPa | 6.7e-10
353.25 K, 1193 kPa | 5.1e-10
353.25 K, 1293 kPa | 4.7e-10
353.25 K, 1392 kPa | 6.5e-10
353.25 K, 1493 kPa | 5.6e-10
353.25 K, 1793 kPa | 7.6e-10
353.25 K, 1893 kPa | 5.8e-10

CCn1cc[n+](C)c1.N#C[C-](C#N)C#N [1-ethyl-3-methyl-1H-imidazolium tricyanomethanide] + O=C=O
Conditions | binary diffusion coefficient [m2/s]
298.15 K, 96 kPa | 3.3e-10
298.15 K, 194 kPa | 2.4e-10
298.15 K, 294 kPa | 2.7e-10
298.15 K, 393 kPa | 2.6e-10
298.15 K, 493 kPa | 2.8e-10
298.15 K, 793 kPa | 3.6e-10
298.15 K, 893 kPa | 3.2e-10
298.15 K, 993 kPa | 3.2e-10
298.15 K, 1293 kPa | 3.9e-10
298.15 K, 1393 kPa | 3.8e-10
298.15 K, 1493 kPa | 4.1e-10
298.15 K, 1793 kPa | 4.4e-10
298.15 K, 1893 kPa | 4.1e-10
298.15 K, 1992 kPa | 4.2e-10
308.15 K, 194 kPa | 2.9e-10
308.15 K, 293 kPa | 3e-10
308.15 K, 393 kPa | 3e-10
308.15 K, 493 kPa | 3e-10
308.15 K, 593 kPa | 3.1e-10
308.15 K, 693 kPa | 3.3e-10
308.15 K, 792 kPa | 3.8e-10
308.15 K, 893 kPa | 3.6e-10
308.15 K, 993 kPa | 3.5e-10
308.15 K, 1093 kPa | 3.6e-10
308.15 K, 1192 kPa | 4.1e-10
308.15 K, 1293 kPa | 3.7e-10
308.15 K, 1393 kPa | 3.9e-10
308.15 K, 1493 kPa | 4.1e-10
308.15 K, 1593 kPa | 3.9e-10
308.15 K, 1693 kPa | 4.1e-10
308.15 K, 1792 kPa | 4.2e-10
308.15 K, 1893 kPa | 4.5e-10
308.15 K, 1993 kPa | 4.1e-10
323.15 K, 194 kPa | 4.4e-10
323.15 K, 294 kPa | 4.8e-10
323.15 K, 394 kPa | 4.4e-10
323.15 K, 494 kPa | 3.9e-10
323.15 K, 593 kPa | 4.1e-10
323.15 K, 692 kPa | 4.1e-10
323.15 K, 793 kPa | 4.4e-10
323.15 K, 892 kPa | 5e-10
323.15 K, 993 kPa | 4.4e-10
323.15 K, 1093 kPa | 4.2e-10
323.15 K, 1193 kPa | 5.3e-10
323.15 K, 1392 kPa | 4.6e-10
323.15 K, 1492 kPa | 4.2e-10
323.15 K, 1593 kPa | 4.2e-10
323.15 K, 1693 kPa | 4.2e-10
323.15 K, 1793 kPa | 5.9e-10
323.15 K, 1993 kPa | 4.9e-10
338.25 K, 94 kPa | 5.1e-10
338.25 K, 194 kPa | 5e-10
338.25 K, 294 kPa | 5.1e-10
338.25 K, 394 kPa | 4.9e-10
338.25 K, 494 kPa | 5.8e-10
338.25 K, 594 kPa | 4.5e-10
338.25 K, 693 kPa | 4.6e-10
338.25 K, 793 kPa | 5.6e-10
338.25 K, 893 kPa | 5.2e-10
338.25 K, 1093 kPa | 5.1e-10
338.25 K, 1192 kPa | 5.2e-10
338.25 K, 1393 kPa | 5.8e-10
338.25 K, 1493 kPa | 4.9e-10
338.25 K, 1592 kPa | 5.1e-10
338.25 K, 1693 kPa | 4.6e-10
338.25 K, 1792 kPa | 5.2e-10
338.25 K, 1993 kPa | 5.4e-10
353.25 K, 95 kPa | 6.1e-10
353.25 K, 294 kPa | 9e-10
353.25 K, 494 kPa | 7.4e-10
353.25 K, 594 kPa | 6.6e-10
353.25 K, 694 kPa | 6.6e-10
353.25 K, 794 kPa | 6.8e-10
353.25 K, 894 kPa | 7.8e-10
353.25 K, 994 kPa | 6.7e-10
353.25 K, 1093 kPa | 6.8e-10
353.25 K, 1192 kPa | 7e-10
353.25 K, 1593 kPa | 7.5e-10
353.25 K, 1693 kPa | 8.2e-10
353.25 K, 1893 kPa | 7.4e-10
353.25 K, 1993 kPa | 7.8e-10
